# Where “and” joins values, the source holds several entries; their conditions need not be identical. Equal entries are not always repeated.
# Tests used:
# E. coli (25922) = assay: MIC assay (Table 1); assay type: cell-based; details: Escherichia coli, isolate 25922
# S. aureus (27660) = assay: MIC assay (Table 1); assay type: cell-based; details: Staphylococcus aureus, isolate 27660
# E. faecalis (29212) = assay: MIC assay (Table 1); assay type: cell-based; details: Enterococcus faecalis, isolate 29212
# Description: (§1) The compounds are screened for antimicrobial activity against a number of clinically relevant pathogens. Minimum Inhibitory Concentrations (MIC) of each of the compounds are determined using standard procedures for clinical ocular isolates of Ciprofloxacin Susceptible (CS) S. aureus (CSSA), Ciprofloxacin Resistant (CR) S. aureus (CRSA), CS S. epidermidis (CSSE), CR S. epidermidis (CRSE), St. pneumoniae (SP), St. viridans group (SV), Moraxella Species (MS) (including Moraxella catarrhalis), H. influenzae (HI), P. aeruginosa (PA), Serratia marcescens (SM), S. aureus fluoroquinolone-susceptible, S. aureus fluoroquinolone-resistant, S. epidermidis (Coagulase-negative Staphylococcus) fluoroquinolone-susceptible, S. epidermidis (Coagulase-negative Staphylococcus) fluoroquinolone-resistant, and Serratia marcescens.
# (§2) On the day of testing, a 640 μg/m (1280 μg/m for Serratia marcescens and Pseudomonas aeruginosa) concentration is prepared from a 1% stock solution in 0.01% acetic acid, 0.2% BSA in polypropylene tubes.
# (§3) Ten μl of diluted 10× test agents is added to each well of one row of the 96 well polypropylene plates from column 2 to column 12 (column 1 is a control for bacteria alone, with no peptide). […] The same peptide is in each of the 8 rows. One plate contains dilutions of one test agent and 8 bacterial isolates.
# (§4) Ninety μl of the bacterial suspensions is dispensed in each well from column 1 to column 12. Each bacterial isolate is placed in one row of a 96 well polypropylene plate containing the test agents. The plates are placed on shaker at 15 minutes at room temperature, and then incubated at 37° C. overnight. MICs are determined visually as the lowest concentration of drug that inhibits visible bacterial growth.
# (§5) Data is expressed as MIC50 in μg/ml. The bacterial isolates were as follows: E. coli (25922); S. aureus (27660); E. faecalis (29212); P. aeruginosa (10145); and K. pneumoniae (13883).
# K. pneumoniae (13883) = assay: MIC assay (Table 1); assay type: cell-based; details: Klebsiella pneumoniae, isolate 13883, read-out: MIC50 K. Pnuemnoiae
# Description: as §1, §2, §3, §4, §5
# P. aeruginosa (10145) = assay: MIC assay (Table 1); assay type: cell-based; details: Pseudomonas aeruginosa, isolate 10145
# Escherichia coli = assay: Antimicrobial activity (MIC) of aryl compounds (Table 2); assay type: cell-based
# From the text: (§6) A new series of aryl compounds was designed to evaluate the effect of charge and aromatic group hydrophobicity on the biological activity while still maintaining an amphiphilic topology. Four and six cationic charges were investigated, and three different central rings were used to tune the overall hydrophobicity: benzene, naphthalene, and phenylbenzene. The hydrophobicities of the aryl compounds were quantified using reversed-phase HPLC retention times (Rt). The antimicrobial activities (expressed as minimum inhibitory concentration (MIC)) of these compounds were tested against four pathogens, including both Gram-negative and Gram-positive bacteria, and their hemolysis (evaluated in terms of HC50, the lowest concentration that causes 50% hemolysis of red blood cells (RBCs)) was tested against human RBCs.
# Staphylococcus aureus = assay: as above; assay type: cell-based
# From the text: as §6
# NIH/3T3 cells = assay: Cytotoxicity colorimetric assay; assay type: cell-based; details: Mus musculus, NIH3T3, 1 h, one hour incubation in serum-free media
# Description: Cytotoxicity of the compounds are evaluated in a colorimetric assay using a transformed human liver cell line (HepG2, HB-8065) and an embryonic mouse cell line (NIH/3T3 cells, CRL-1658). This assay measures the bioreduction of a novel tetrazolium compound to a soluble formazan product by viable cells. HepG2 cells are seeded in 96 well plates at 2×10^4 cells/well in MEM medium with 10% fetal bovine serum (FBS) 24 hours prior to use. NIH/3T3 cells are seeded in 96 well plates at 2×10^4 cells/well in DMEM medium with 10% bovine calf serum (BCS) 24 hours prior to use. Cell monolayers are rinsed in serum-free media and incubated for one hour with a Compound in serum-free media. After incubation, the media is replaced with serum supplemented media and live cells are measured using the Cell Titer 96 Aqueous […] Assay kit (Promega, Madison, Wis.). EC50 values are determined using a four parameter logistic equation: Y=Bottom+(Top−Bottom)/(1+10^((Log EC50−X)*HillSlope)). […] Data is expressed as EC50 in μg/ml. Cytotoxicity is evaluated in a colorimetric assay using a transformed human liver cell line (HepG2, HB-8065) and an embryonic mouse cell line (NIH/3T3 cells, CRL-1658). This assay measures the bioreduction of a novel tetrazolium compound to a soluble formazan product by viable cells. HepG2 cells are seeded in 96 well plates at 3×10^4 cells/well in MEM medium with 10% fetal bovine serum (FBS) 24 hours prior to use. NIH/3T3 cells are seeded in 96 well plates at 2×10^4 cells/well in DMEM medium with 10% bovine calf serum (BCS) 24 hours prior to use. Cell monolayers are rinsed in serum-free media and incubated for one hour with test agent in serum-free media. After incubation, the media is replaced with serum supplemented media and live cells are measured using the Cell Titer 96 Aqueous […] Assay kit (Promega, Madison, Wis.). EC50 values are determined using a four parameter logistic equation: Y=Bottom+(Top−Bottom)/(1+10^((Log EC50−X)*HillSlope)).
# RAW 264.7 cells = assay: Cytokine production in RAW 264.7 cells (ELISA); assay type: cell-based, murine
# [1] = system: primary murine bone marrow-derived macrophages (BMDMs); assay: Cytokine and chemokine production in BMDM cells; assay type: cell-based, mouse
# From the text: The specific self-agonistic effect of Compound 116 along with its elevated agonistic effect with LPS stimulation in RAW 264.7 cells prompted evaluation of Compound 116 activity in primary murine bone marrow-derived macrophages (BMDMs). […] This observation is very similar to the immunomodulatory effect of Compound 116 in RAW 264.7 cells.
# It was previously reported that the protective activity of a synthetic cationic peptide against bacterial infection was associated with the induction of chemokines such as CXCL1 from macrophages and/or monocytes. Thus, the ability of this nontoxic, nonpeptidic, antimicrobial compound to modulate both cytokine and chemokine production is encouraging for the design of synthetic molecules with multiple biological functions.
smiles,measurement,setting,value
NCCCOc1cc(-c2ccc3ccc(-c4cc(OCCCN)c(OCCCN)c(OCCCN)c4)cc3c2)cc(OCCCN)c1OCCCN [Compound 116],MIC50,E. coli (25922),3.13 µg/mL
same,MIC50,S. aureus (27660),3.13 µg/mL
same,MIC50,E. faecalis (29212),25 µg/mL
same,MIC50,K. pneumoniae (13883),25 µg/mL
same,MIC50,P. aeruginosa (10145),25 µg/mL
same,MIC,"Escherichia coli; Escherichia coli, Table 2",3.13 µg/mL
same,Selectivity (HC50/MIC) E. coli,Escherichia coli; HC50/MIC,200 and 209.6
same,MIC E. coli,Escherichia coli; Table 2,≈ 3 μg/ml
same,Selectivity (HC50/MIC) S. aureus,Staphylococcus aureus; HC50/MIC,200 and 209.6
same,"selectivity, times higher than the selectivity of MSI-78","Staphylococcus aureus; S. aureus and E. coli, relative to MSI-78",~20 times
same,MIC,"Staphylococcus aureus; Staphylococcus aureus, Table 2, read-out: MIC S. aureus",3.13 µg/mL
same,MIC S. aureus,Staphylococcus aureus; Table 2,≈ 3 μg/ml
same,EC50,NIH/3T3 cells,165 µg/mL
same,LPS-induced TNF production,"RAW 264.7 cells; 5.0 μg/mL preincubation 1 hour, LPS 100 ng/mL 18 hours, FIG. 1B",increased
same,LPS-induced IL-6 production,"RAW 264.7 cells; 5.0 μg/mL preincubation 1 hour, LPS 100 ng/mL 18 hours, FIG. 1C",increased
same,LPS-induced IL-10 production,"RAW 264.7 cells; 5.0 μg/mL preincubation 1 hour, LPS 100 ng/mL 18 hours, FIG. 1D",inhibited the production of the anti-inflammatory cytokine IL 10 to background levels
same,TNF production,"RAW 264.7 cells; 5.0 μg/mL, without LPS, FIG. 1A",induced TNF production
same,LPS-induced TNF production with externally added rIL-10,"RAW 264.7 cells; preincubated with mouse rIL-10 50 ng/mL, 5.0 μg/mL compound, LPS 100 ng/mL, FIG. 2",abrogation of Compound 116's capacity to enhance TNF production
same,TNF level with externally added rIL-10,"RAW 264.7 cells; preincubated with mouse rIL-10 50 ng/mL, 5.0 μg/mL compound, without LPS, FIG. 2",only a slight decrease in the overall TNF level
same,LPS-induced TNF production,"[1]; 5.0 μg/mL preincubation 1 hour, LPS 100 ng/mL 15 hours, FIG. 3A",significantly increased
same,LPS-induced IL-10 production,"[1]; 5.0 μg/mL preincubation 1 hour, LPS 100 ng/mL 15 hours, FIG. 3B",inhibited
same,TNF production,"[1]; 5.0 μg/mL, in the absence of LPS, FIG. 3A",30 pg/mL
same,murine KC (chemokine CXCL1) levels,"[1]; 5.0 μg/mL, relative to the DMSO control, FIG. 3C",significantly higher levels
